Results: paper PMC8145535, “New Acyl Derivatives of 3-Aminofurazanes and Their Antiplasmodial Activities” (Pharmaceuticals, 2021)
pIC50: −log10 of the molar value. Where two headings read alike, the source gives them in different places.

Columns and labels:
P. falciparum K1 = experiment: In vitro 3H-hypoxanthine incorporation assay, erythrocytic stages, K1 strain; type: cell-based; details: Plasmodium falciparum
Description: (§1) Chloroquine (Sigma C6628) was used as standard. […] Serial drug dilutions of 11 3-fold dilution steps covering a range from 100 to 0.002 μg/mL were prepared. The 96-well plates were incubated in a humidified atmosphere at 37 °C; 4% CO2, 3% O2, 93% N2. […] The plates were incubated for a further 24 h under the same conditions. The plates were then harvested with a Betaplate cell harvester (Wallac, Zurich, Switzerland). The red blood cells were transferred onto a glass fiber filter and washed with distilled water. The dried filters were inserted into a plastic foil with 10 mL of scintillation fluid and counted in a Betaplate liquid scintillation counter (Wallac, Zurich, Switzerland).

[1] = In vitro cytotoxicity with L-6 cells (Alamar Blue); details: rat
Description: Serial drug dilutions of 11 3-fold dilution steps covering a range from 100 to 0.002 μg/mL were prepared. After 70 h of incubation, the plates were inspected under an inverted microscope to assure the growth of the controls and sterile conditions. […] Then, the plates were read with a Spectramax Gemini XS microplate fluorometer (Molecular Devices Cooperation, Sunnyvale, CA, USA) using an excitation wavelength of 536 nm and an emission wavelength of 588 nm. […] Podophyllotoxin (Sigma P4405) was used as control.

P. falciparum NF54 = experiment: In vitro 3H-hypoxanthine incorporation assay, erythrocytic stages, NF54 strain; type: cell-based, Plasmodium falciparum; details: average of four determinations, read-out: P.f. NF54 IC50
Description: as §1

[2] = system: P. berghei liver schizonts; design: method as in PMID 27275010, PMID 16242190; details: P. berghei assay; cited from earlier work
[3] = Parallel artificial membrane permeability assay (PAMPA); type: in vitro ADME; details: pH 7.4, 200 µM in PBS, room temperature; for Papp at 5 h, 200 µM: pH 7.4, PAMPA, read-out: Pe (effective permeability)
Description: The PAMPA was performed using a 96-well precoated Corning Gentest PAMPA plate at a pH of 7.4. The PAMPA plate system consists of a donor plate and an acceptor plate. When both plates are coupled, each well is divided into two chambers that are separated by a lipid–oil–lipid trilayer constructed in a porous filter. Stock solutions (10 mM) of each compound were prepared in DMSO and then further diluted to a concentration of 200 µM in phosphate-buffered saline (PBS) at pH 7.4. The compound dissolved in PBS was then added to the donor plate and pure PBS was added to the acceptor plate. Four replicates of each compound and negative control (PBS) were transferred into different wells of the donor plate. Both plates were coupled and left at room temperature for 5 h. Then, the plates were separated, and the solutions of each donor well and acceptor well were transferred to 96-well UV-Star Microplates (Greiner Bio-One). The UV absorbance of compounds in donor wells and acceptor wells were analyzed by a SpectraMax M3 UV plate reader (Molecular Devices). The concentrations were received from a calibration curve for each substance. The plates were analyzed at a wavelength where the R^2 value of the calibration curve was higher than 0.99 [34]. The effective permeability (Pe) was calculated as shown in the following Equations (1)–(3):(1) Penm/s=10^7∗−ln1−cAt/cequ/S∗1/VD+1/VA∗ t where:
cequ—equilibrium concentration. (2) cequ=cDt ∗VD+cAt ∗VA/VD+VA where:
Recovery of compounds from donor and acceptor wells (mass retention) was calculated as shown in the equation below. Data were only accepted when recovery exceeded 70%.

Na+-efflux pump PfATP4 = system: Na+-efflux pump PfATP4; design: method as in PMID 25145582, PMID 33023071, PMID 19956997, PMID 25715757; details: possible target; cited from earlier work
[4] = system: multiresistant strain K1 of Plasmodium falciparum; design: method as in PMID 27467575; details: MMV Malaria Box; cited from earlier work
early gametocyte stages = system: early gametocyte stages; design: method as in PMID 24060871, PMID 23234555, PMID 26787698, PMID 26749441, PMID 17521751; details: cited from earlier work
[5] = system: multiresistant strain Dd2 of Plasmodium falciparum; design: method as in PMID 27467575; details: MMV Malaria Box; cited from earlier work
[6] = Plasmodium falciparum, NF54, chloroquine-sensitive strain
[7] = K1, strain resistant to chloroquine and pyrimethamine, average of four determinations, read-out: P.f. K1 IC50

| SMILES | IC50 at 72 h [1] [µM] | pIC50 (P. falciparum NF54; [6]) | pIC50 (P. falciparum K1; [7]) | Papp at 5 h, 200 µM [3] [×10⁻⁶ cm/s] | melting point | other results |
| --- | --- | --- | --- | --- | --- | --- |
| CCN(CC)CCCC(C)Nc1ccnc2cc(Cl)ccc12 (stereo not drawn) [CQ, chloroquine, reference compound] | 188 |  |  |  |  | pIC50 (P. falciparum K1; K1, read-out: P.f. K1 IC50): 6.82 |
| CCOc1ccc(-c2nonc2NC(=O)c2ccccc2C)cc1OCC [Compound 11, N-(4-(3,4-Diethoxyphenyl)-1,2,5-oxadiazol-3-yl)-2-methylbenzamide] | 14.9 | 6.08 to 6.46 |  |  |  | pIC50 (P. falciparum NF54; chloroquine-sensitive strain): 6.46 |
| CCOc1ccc(-c2nonc2NC(=O)c2cccc(C)c2)cc1OCC [Compound 1, N-(4-(3,4-Diethoxyphenyl)-1,2,5-oxadiazol-3-yl)-3-methylbenzamide] | 159 | 7.96 | 7.96 | 2.77 |  | activity against liver schizonts [2]: activity against liver schizonts; inhibition of PfATP4 (Na+-efflux pump PfATP4): likely to inhibit; antiplasmodial activity against multiresistant strain K1 [4]: shows antiplasmodial activity; activity against early gametocyte stages (early gametocyte stages): working against early gametocyte stages; antiplasmodial activity against multiresistant strain Dd2 [5]: shows antiplasmodial activity |
| CCOc1ccc(-c2nonc2NC(=O)c2ccc(CN3CCCC3)cc2)cc1OCC [Compound 26, N-(4-(3,4-Diethoxyphenyl)-1,2,5-oxadiazol-3-yl)-4-((pyrrolidin-1-yl)methyl)benzamide] | 102 |  | 5.73 | 8.13 | 251 °C (dec.) |  |
| CCOc1ccc(-c2nonc2NC(=O)CCN2CCCC2)cc1OCC [Compound 34, N-(4-(3,4-Diethoxyphenyl)-1,2,5-oxadiazol-3-yl)-3-(pyrrolidin-1-yl)propanamide] | 140 | 4.25 | 5.62 | 6.93 |  |  |
| CCOc1ccc(-c2nonc2NC(=O)c2ccccc2)cc1OCC [Compound 10, N-(4-(3,4-Diethoxyphenyl)-1,2,5-oxadiazol-3-yl)benzamide] | 111 | 7.12 | 7.04 |  | 199 °C |  |
| CCOc1ccc(-c2nonc2NC(=O)c2ccc(OC)c(F)c2)cc1OCC [Compound 17, N-(4-(3,4-Diethoxyphenyl)-1,2,5-oxadiazol-3-yl)-3-fluoro-4-methoxybenzamide] | 35 |  |  | 3.9 | 232 °C (dec.) |  |
| COc1cc([C@@H]2c3cc4c(cc3[C@H](O)[C@H]3COC(=O)[C@H]23)OCO4)cc(OC)c1OC [POD, podophyllotoxin, reference compound] | 0.012 |  |  |  |  |  |
| C[C@@H]1CC[C@H]2[C@@H](C)C(=O)O[C@@H]3O[C@@]4(C)CC[C@@H]1[C@]32OO4 [ART, artemisinin, reference compound] | 450 |  | 8.19 |  |  |  |
| CCOc1ccc(-c2nonc2NC(=O)CN2CCOCC2)cc1OCC [Compound 32, N-(4-(3,4-Diethoxyphenyl)-1,2,5-oxadiazol-3-yl)-2-(morpholin-4-yl)acetamide] | 266 | 4.62 | 4.71 | 10.2 to 10.8 |  | Pe (effective permeability) [3]: 10.25 10^−6 cm/s |
| Cc1cccc(C(=O)Nc2nonc2-c2ccccc2)c1 [Compound 39, 3-Methyl-N-(4-phenyl-1,2,5-oxadiazol-3-yl)benzamide] | 66 | 4.67 | 4.40 | 8.47 |  |  |
| CCOc1ccc(-c2nonc2NC(=O)c2cccc(F)c2)cc1OCC [Compound 14, N-(4-(3,4-Diethoxyphenyl)-1,2,5-oxadiazol-3-yl)-3-fluorobenzamide] | 41.1 | 7.31 | 6.97 |  | 250 °C |  |
| CCOc1ccc(-c2nonc2NC(=O)c2ccc(CN3CCOCC3)cc2)cc1OCC [Compound 27, N-(4-(3,4-Diethoxyphenyl)-1,2,5-oxadiazol-3-yl)-4-((morpholin-4-yl)methyl)benzamide] | 116 | 5.39 to 6.17 | 6.23 |  | 269 °C (dec.) | pIC50 (P. falciparum NF54; chloroquine-sensitive strain): 6.17 |
| CCOc1ccc(-c2nonc2NC(=O)CCN2CCOCC2)cc1OCC [Compound 35, N-(4-(3,4-Diethoxyphenyl)-1,2,5-oxadiazol-3-yl)-3-(morpholin-4-yl)propanamide] | 147 | 4.52 | 4.72 | 6.08 |  |  |
| CCOc1ccc(-c2nonc2NC(=O)c2ccccc2C(F)(F)F)cc1OCC [Compound 12, N-(4-(3,4-Diethoxyphenyl)-1,2,5-oxadiazol-3-yl)-2-(trifluoromethyl)benzamide] | 14.2 |  |  |  |  |  |
| CCOc1ccc(-c2nonc2NC(=O)CN2CCCC2)cc1OCC [Compound 31, N-(4-(3,4-Diethoxyphenyl)-1,2,5-oxadiazol-3-yl)-2-(pyrrolidin-1-yl)acetamide] | 242 | 5.14 | 5.30 | 10.2 to 10.8 |  | Pe (effective permeability) [3]: 10.80 10^−6 cm/s |
| CCOc1ccc(-c2nonc2NC(=O)c2cccc(C(F)(F)F)c2)cc1OCC [Compound 13, N-(4-(3,4-Diethoxyphenyl)-1,2,5-oxadiazol-3-yl)-3-(trifluoromethyl)benzamide] | 9.97 | 7.72 | 8.15 | 4.26 | 153 °C |  |
| CCOc1ccc(-c2nonc2NC(=O)c2cccc(CN3CCOCC3)c2)cc1OCC [Compound 29, N-(4-(3,4-Diethoxyphenyl)-1,2,5-oxadiazol-3-yl)-3-((morpholin-4-yl)methyl)benzamide] | 104 | 6.15 |  | 5.65 | 199 °C |  |
| CCOc1ccc(-c2nonc2NC(=O)c2cccc(CN3CCCC3)c2)cc1OCC [Compound 28, N-(4-(3,4-Diethoxyphenyl)-1,2,5-oxadiazol-3-yl)-3-((pyrrolidin-1-yl)methyl)benzamide] | 77.2 | 6.72 |  | 7.26 |  |  |
| CCOc1ccc(-c2nonc2NC(=O)c2cccc(OC(F)(F)F)c2)cc1OCC [Compound 15, N-(4-(3,4-Diethoxyphenyl)-1,2,5-oxadiazol-3-yl)-3-(trifluoromethoxy)benzamide] | 14 | 7.01 |  |  |  |  |
| CCOc1ccc(-c2nonc2NC(=O)c2ccc(OC)c(Cl)c2)cc1OCC [Compound 16, 3-Chloro-N-(4-(3,4-diethoxyphenyl)-1,2,5-oxadiazol-3-yl)-4-methoxybenzamide] | 20 | 6.78 to 7.85 |  |  | 260 °C (dec.) | pIC50 (P. falciparum NF54; chloroquine-sensitive strain): 7.85 |
